Laboratory results taken from patent US20240050580A1, “COMPOSITIONS TARGETING TUMOR ASSOCIATED MACROPHAGES AND METHODS USING SAME” (Rutgers, The State University of New Jersey, priority 2020, published 2024).
Bridge positions count the residues as written; N and C are the ends. Ends that are not written are not given here.

Columns and labels:
EF43.fgf4 cells = experiment: Phage/peptide binding to cultured EF43.fgf4 cells (BRASIL cell binding assay); assay type: cell-based, mouse; conditions: standard cell binding assay, phage-displayed peptide
Method: (§1) The Biopanning and Rapid Analysis of Selective Interactive Ligands (BRASIL) methodology was used to test binding of phage to cultured cells. For phage binding to the candidate receptors PDIA3 and DBP, individual microtiter wells of 96-well plates were coated overnight (ON) with 1 μg/ml of recombinant proteins, followed by blocking with BSA and incubation with 10^9 TU of insertless phage or […]-phage for 1 hour at room temperature (RT). GST and BSA were used as control proteins. Bound phage were recovered by log-phase infection of host bacteria (200 μl E. coli K91Kan).

[1] = system: EF43.fgf4-derived mammary fat pad tumors; experiment: In vivo phage display library selection in EF43.fgf4 tumor-bearing mice; set-up: species or system mouse; conditions: peptide sequences from third round of in vivo selection
Method: Combinatorial phage display selections in vivo in tumor-bearing mice were performed as described in the literature. In brief, animals received 10^9 TU iv of an unselected phage display random peptide library (displaying the insert CX7C). Tumors and control organs were collected after 24 hours of systemic circulation. For homing of individual phage clones in vivo, tumor-bearing mice were deeply anesthetized with 1-2% isoflurane and received 10^9 TU of targeted phage or insertless control phage, both administered iv side-by-side. Phage particles were recovered from tissue samples by bacterial infection and processed as described in the literature.
A phage display-based approach was used to identify homing peptides that target TAM in TNBC. […] A random phage peptide library was first administered intravenously (iv) in immunocompetent female BALB/c mice with established EF43.fgf4-derived mammary fat pad tumors. Phage particles were recovered from tumors after 24 hours, re-amplified, and subjected to two additional rounds of in vivo selection. […] The four selected peptides were next individually evaluated based on absence of binding to EF43.fgf4 cells in vitro (FIG. 2B). […] In a non-limiting aspect, the peptides […], (SEQ ID NO:3) […] (SEQ ID NO:4), and […] (SEQ ID NO:2) were not studied further.

[2] = system: CD11b+F4/80+ TAM from EF43.fgf4 mammary tumors; experiment: Cytokine gene expression by quantitative real-time PCR in cultured TAM; assay type: cell-based, mouse
Method: Three sets of total RNA (RNeasy Mini Kit, Qiagen) were independently isolated from cultured macrophages, or fresh macrophages isolated directly from tumors. DNA synthesis was performed with the […] Reverse Transcription System (Promega) by using oligodT for reverse transcription. Gene expression was analyzed with the use of Tagman probes (Applied Biosystems) in a 7500 Fast Real-Time PCR System instrument (Applied Biosystems) and three sets of endogenous control genes: 18S and GAPDH and GUSB1. TAM were obtained directly from EF43.fgf4 tumors. Tissue digestion was performed in collagenase A in serum-free DMEM (1 mg/mL) for 20 minutes at 37° C., followed by filtering through 70 μm nylon cell strainers and centrifugation. Macrophages were enriched by magnetic bead separation of CD11b-positive cells (Miltenyi Biotec) and either used for RNA extraction or cultured in 6-well plates containing DMEM (Gibco) supplemented with 20% FBS (Sigma) and 50 ng/ml of M-CSF (R&D Systems). A homogeneous population of adherent macrophages (namely, >99% CD11b+F480+) was obtained after 7 days in culture.

EF43.fgf4 tumors = experiment: Systemic treatment of EF43.fgf4 tumor-bearing mice with soluble peptide; assay type: in vivo, mouse
DBP = target: T1, DBP (Homo sapiens, UniProt P02774); experiment: Competitive binding of […]-phage and vitamin D forms to DBP; conditions: wells pre-incubated with 3 nM or 30 nM competitor; P<0.05
T1 construct: GST; purchased Abcam
T1 sequence (P02774 17-474): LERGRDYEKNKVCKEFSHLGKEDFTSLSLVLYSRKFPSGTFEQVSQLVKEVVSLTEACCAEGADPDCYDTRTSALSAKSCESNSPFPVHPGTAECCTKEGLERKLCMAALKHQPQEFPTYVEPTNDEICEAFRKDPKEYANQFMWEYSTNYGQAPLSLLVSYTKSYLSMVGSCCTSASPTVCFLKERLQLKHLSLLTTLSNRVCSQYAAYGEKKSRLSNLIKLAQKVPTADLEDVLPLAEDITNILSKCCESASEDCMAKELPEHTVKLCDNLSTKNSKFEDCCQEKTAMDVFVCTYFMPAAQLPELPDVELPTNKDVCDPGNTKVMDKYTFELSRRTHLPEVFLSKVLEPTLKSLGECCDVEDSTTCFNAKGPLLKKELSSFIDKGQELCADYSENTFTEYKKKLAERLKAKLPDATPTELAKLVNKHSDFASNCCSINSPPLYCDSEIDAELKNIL
Method: as §1

[3] = target: T2, PDIA3 on the surface of tumor associated macrophages (TAM) from EF43.fgf4 mammary tumors (mouse, UniProt P27773 25-505); experiment: cell-based or functional assay
T2 sequence (looked up): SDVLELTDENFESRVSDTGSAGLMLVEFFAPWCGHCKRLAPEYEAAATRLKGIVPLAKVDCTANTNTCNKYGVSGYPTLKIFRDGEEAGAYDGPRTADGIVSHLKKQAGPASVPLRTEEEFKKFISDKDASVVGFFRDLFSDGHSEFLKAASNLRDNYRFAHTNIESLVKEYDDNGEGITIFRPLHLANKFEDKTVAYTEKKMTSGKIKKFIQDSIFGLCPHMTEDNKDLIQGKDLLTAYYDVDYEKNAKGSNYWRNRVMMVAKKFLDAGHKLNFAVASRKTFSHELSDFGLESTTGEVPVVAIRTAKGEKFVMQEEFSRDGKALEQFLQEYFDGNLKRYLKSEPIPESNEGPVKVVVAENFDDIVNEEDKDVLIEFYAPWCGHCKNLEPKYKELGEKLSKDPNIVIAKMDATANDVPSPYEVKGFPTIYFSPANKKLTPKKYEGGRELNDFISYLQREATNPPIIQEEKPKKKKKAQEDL

[4] = target: T3, recombinant human vitamin D-binding protein (DBP) (human, UniProt P02774 17-474, limits assumed); experiment: phage binding assay on coated recombinant protein, bound phage counted as TU
T3 construct: Bought from Abcam and coated at 1 ug/ml on microtiter wells; also called recombinant human DBP; DBP-GST
T3 sequence (looked up): T1 sequence (P02774 17-474)
Method: The Biopanning and Rapid Analysis of Selective Interactive Ligands (BRASIL) methodology was used to test binding of phage to cultured cells. […] GST and BSA were used as control proteins. Bound phage were recovered by log-phase infection of host bacteria (200 μl E. coli K91Kan).

**Q.** With “CQRALMIAC (TAM Targeting Peptide) [TAM targeting peptide selected by in vivo phage display]” as the molecule, how does the “binding to EF43.fgf4 cells in vitro” value (EF43.fgf4 cells) read?
**A.** bound to EF43.fgf4 cells

**Q.** How did the “enrichment relative to each of the other three selected peptides” value [1] turn out when “CSSTRESAC (disulfide 1-9) [TAM targeting peptide from CX7C phage library; modeled with disulfide bridge between Cys1 and Cys9]” was run?
**A.** 16 fold

**Q.** And the “binding to EF43.fgf4 cells in vitro” value (EF43.fgf4 cells)?
**A.** did not

**Q.** What about the “gene expression of IL-4 and IL-13” value [2] of the same molecule?
**A.** undetectable

**Q.** What about the “gene expression of IL-18, IL-12, and INFβ” value ([2]; relative to control cells) of the same molecule?
**A.** modest increases or were detected only at background levels

**Q.** And the “gene expression of anti-inflammatory cytokines TGF-β1, TGF-β2, IL-10, and arginase-1” value ([2]; relative to control cells)?
**A.** much lower increases

**Q.** And the tumor growth (EF43.fgf4 tumors; iv, vs unrelated control peptide or vehicle, from one week post initiation, P<0.001)?
**A.** significant delay in tumor growth

**Q.** And the “macrophage population in tumor sections (immunohistochemistry, CD163)” value (EF43.fgf4 tumors; vs control peptide)?
**A.** reduction of the macrophage population

**Q.** And the “number of CD11b+IL10highIL12low PDIA3-expressing TAM in tumors (FACS)” value (EF43.fgf4 tumors; vs negative control groups)?
**A.** reduction in the number

**Q.** With “CRYSAARSC (TAM Targeting Peptide) [TAM targeting peptide selected by in vivo phage display]” as the molecule, how does the “binding to EF43.fgf4 cells in vitro” value (EF43.fgf4 cells) read?
**A.** bound to EF43.fgf4 cells

**Q.** How did the “binding to EF43.fgf4 cells in vitro” value (EF43.fgf4 cells) turn out when “CRGFVVGRC (TAM Targeting Peptide) [TAM targeting peptide selected by in vivo phage display]” was run?
**A.** bound to EF43.fgf4 cells

**Q.** For `C=C1/C(=C\C=C2/CCC[C@]3(C)[C@@H]([C@H](C)CCCC(C)(C)O)CC[C@@H]23)C[C@@H](O)C[C@@H]1O` [1,25-(OH)2D3, reference compound], which “effect of co-treatment on the CSSTRESAC-induced cytokine response” value ([2]; TAM co-treated with CSSTRESAC peptide and 1,25-(OH)2D3) is on record?
**A.** abrogated

**Q.** How did the “effect on binding of CSSTRESAC-phage to immobilized DBP” value (DBP) turn out when `C=C1CC[C@H](O)C/C1=C/C=C1\CCC[C@]2(C)[C@@H]([C@H](C)CCCC(C)C)CC[C@@H]12` [vitamin D3, cholecalciferol] was run?
**A.** not

B1: synthetic CSSTRESAC peptide (SEQ ID NO:1) (peptide)
peptide: CSSTRESAC
modifications: not fully specified; cysteine pairing not given here
**Q.** With B1 as the molecule, how does the “gene expression of iNOS2 in cultured CD11b+F4/80+ TAM (real-time quantitative PCR)” value [3] read?
**A.** ~20 fold

**Q.** What about the “gene expression of the cytokine IL-23 in cultured CD11b+F4/80+ TAM (real-time quantitative PCR)” value [3] of the same molecule?
**A.** ~10 fold

**Q.** And the “gene expression of the pro-inflammatory cytokines IL-1β, TNF-α, and IL-6 in cultured CD11b+F4/80+ TAM (real-time quantitative PCR)” value [3]?
**A.** ~40 fold

B2: CSSTRESAC-phage (peptide)
peptide: CSSTRESAC
modifications: cysteine pairing not given here; also: displayed on bacteriophage particle
notes: The control was insertless phage; not shown: The phage coat protein and the rest of the phage particle that carry the CX7C insert
**Q.** Does B2 bind [4]?
**A.** binds
